Data reported in PubChem BioAssay AID179 (DTP/NCI, 2004).
pEC50, pIC50: −log10 of the molar value. Where “and” joins values, the source holds several entries; their conditions need not be identical. Equal entries are not always repeated. Calls of active or inactive are those of the source.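 The calls were made as follows: active = compounds giving half or more protection of infected cells from virus-caused growth loss, again on retest; inactive = the rest.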

System: CEM cells HIV-1 protection, formazan growth assay
Assay: NCI AIDS Antiviral Assay
Details: for pIC50: measured here: growth of uninfected CEM cells
How it was run: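 Screen of anti-HIV-1 activity in human CEM cells using a formazan-based growth measurement at five drug concentrations. Hits with 50% or greater protection were repeated, and confirmation required reproducible complete protection.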

Structure (SMILES)	pEC50	pIC50	outcome
CCOc1ncn(-c2ccc(NC(=S)NC3OC(CO)C(O)C(O)C3O)cc2)n1 (centres undefined)	< 3.70	< 3.70	
Cc1ccc(-n2cc(-c3ccc(Cl)cc3)c3c(NNC(=S)NCc4ccccc4)ncnc32)cc1	< 3.70	5.12	
Cc1ccc(S(=O)(=O)N/N=C/CN2C(=O)c3ccccc3C2=O)cc1	3.74	3.72	
COC(=O)N/N=C(\C)CC(=O)Nc1cccc([N+](=O)[O-])c1	< 3.35	< 3.35	
C=C1C(=O)SC(=NCc2ccccc2)N1C	< 3.69	3.88	
O=c1c([Se]c2coc3ccccc3c2=O)coc2ccccc12	< 4.99	< 4.99	
CC1C2C=CC1C(c1c3ccc(=O)c(O)c-3oc3c(O)c(O)ccc13)C2C(=O)O (centres undefined)	5.69	< 3.70	
N#Cc1ncn(-c2ccccc2)c1N	< 3.70	< 3.70	
COc1ccccc1NC(=O)/C(=C/n1c(=S)sc2ccccc21)C(C)=O	< 3.70	3.94	
COc1cccc(CCCNC(=O)Cc2cc(OC)c(OC)cc2CO)c1	< 3.70	4.84	
COc1ccc(CC(=O)NCCc2ccc(OC)c(OC)c2)cc1Br	< 3.50	< 3.50	
C1COCCOP2(N3CC3)=NP(N3CC3)(=NP(N3CC3)(N3CC3)=N2)OCCOCCO1 (centres undefined)	< 3.70	4.67	
Cc1cc(N(CCC#N)CCC#N)ccc1/C=N/NC(=O)c1cc(Cl)ccc1O	< 3.70	< 3.70	
O=c1[nH]c(=S)nc2nc3c4ccc[nH]c4c4ccccc4c3nc12	< 3.70	4.23	
CC(C)c1ccc(/C=C2\CSCC3=C2NC(=S)NC3c2ccc(C(C)C)cc2)cc1 (centres undefined)	< 3.70	4.37	
O=C1NC2C3CC(c4ccccc43)C12 (centres undefined)	< 3.08	< 3.08	
CC(=O)OCC(OC(C)=O)C(OC(C)=O)C(OC(C)=O)C(=O)CNn1c(-c2ccccc2)nc2ccc(Br)cc2c1=O (centres undefined)			inactive
CC1CCCC(C(O)CC2CC(=O)N(c3ccccc3)C(=O)C2)C1=O (centres undefined)	< 3.70	< 3.70	
O=S1(=O)CCCS(=O)(=O)C(c2ccccc2)=C1c1ccccc1	< 3.84	4.30	
S=c1[nH][nH]c(=S)c2c1[nH]c(=S)n2Cc1ccccc1	4.38	4.36	
Cc1ccc(/C=C(/C(=O)c2ccccc2)c2ccccc2)cc1	< 5.31	< 5.31	
COc1cccc(Oc2c(O)c3ccc(OC)cc3oc2=O)c1	< 3.70	3.85	

Structure (SMILES)	pEC50	pIC50	outcome
CC(C)N1CCOC(c2ccc(O)c(O)c2)C1 (centres undefined)	< 3.70	4.02	
Cc1cc2nc(-c3ccccc3[N+](=O)[O-])[nH]c2cc1C			inactive
O=C1CC2CCC(C1)N2CC1COc2ccccc2O1 (centres undefined)	< 3.70	< 3.70	
OCC(O)c1cc(I)c(Oc2ccc(O)cc2)c(I)c1 (centres undefined)	< 3.70	< 3.70	
CCCCNC(=O)c1cc(S(=O)(=O)n2cc[nH]c2=O)c(SC)cc1Cl	< 3.70	< 3.70	
C=C(C)C(C(=O)OC(c1ccccc1)c1ccccc1)N1C(=O)C(NC(=O)COc2ccccc2)C1SSC(C)(C)C (centres undefined)	< 3.70	4.14	
CC(C)(Br)C(=O)N1CCN(C(c2ccccc2)c2ccccc2)CC1	< 4.60		
COC1=NCc2ccccc2-c2ccccc21	< 3.65	3.91	
CCC[CH2][Sn]([CH2]CCC)([O]C(=O)C1CCC(=O)N1)[O]C(=O)C1CCC(=O)N1 (centres undefined)	< 4.41	7.04	
CCOC(=O)C(OCC1CC=CCC1)Sc1ccccc1 (centres undefined)	< 4.63	< 4.63	
CSc1ccccc1NC1=NCCO1	< 3.70	< 3.70	
CSc1c(C#N)c(O)n(-c2ccc(C)cc2)c(=O)c1C#N	< 3.94	3.99	
O=[N+]([O-])C(=C1c2ccccc2-c2ccccc21)[N+](=O)[O-]	< 3.87	4.74	
CC(=O)[O-].CC(=O)[O-].[Mn+2].c1ccc(/C(=N\Nc2ccccn2)c2ccccn2)cc1			inactive
O=C(O)/C(Cl)=C(/Cl)C(=O)Nc1cccc(Cl)c1			inactive
CC(=O)N1CC2Nc3ccccc3C2CC1CO (centres undefined)			inactive
CCCCCCCCCCCCCCCC(O)S(=O)(=O)O (centres undefined)	< 4.00	4.82	
CC(C(=O)c1ccccc1)C1(O)C(=O)Nc2ccccc21 (centres undefined)			inactive
Cc1cc(S(=O)(=O)N2CCNC2=O)c(S)cc1Cl	4.05	3.60	
CC1=CC(C)=Nc2ccccc2N1	< 3.70	< 3.70 and 3.71	
COc1ccc2c(c1O)C(=O)C(CCC(=O)O)CC2 (centres undefined)			inactive
CCCCCC=C(c1cc(Cl)c(OC)c(C(=O)OCCC)c1)c1cc(Cl)c(OC)c(C(=O)OCCC)c1	< 4.91	< 4.91	

Structure (SMILES)	pEC50	pIC50	outcome
CSc1nc(NC2OC(COC(C)=O)C(OC(C)=O)C(OC(C)=O)C2OC(C)=O)c(N=CC=Nc2c(NC3OC(COC(C)=O)C(OC(C)=O)C(OC(C)=O)C3OC(C)=O)nc(SC)n(C)c2=O)c(=O)n1C (centres undefined)			inactive
CC1=CCCC2C1(C)CCC(C)C2(C)Cc1cc(O)ccc1O (centres undefined)	< 4.00	4.92	
COc1c(OC)c(O)c2c(=O)c(OC)c(-c3ccc4c(c3)OCO4)oc2c1O	< 3.70	4.13	
CC(=O)NCCSSSCCNC(C)=O	< 3.70	6.05	
CSc1c(S(C)=O)c2ccccc2n1C (centres undefined)	< 3.70	< 3.70	
COC12c3ccccc3-c3ccccc3C1[C@@H](C(=O)O)[C@H]2C(=O)O (some centres undefined)	< 3.11	< 3.11	
Cc1cc(=O)c2c(ccc3c(=O)cc(C)[nH]c32)[nH]1	< 3.59	3.62	
C=C1OC(=O)[C@]2([C@@H](/C=C/C)C=CC(=O)[C@H]2O)[C@@H]1O	< 3.70	< 3.70	
O=C1/C(=C\c2cccc(Oc3ccccc3)c2)SC(c2ccccc2)N1c1ccc(Cl)cc1 (centres undefined)	< 4.70	5.89	
CC(=O)C(=Cc1cccc(Cl)c1)C(C)=O	< 3.79	4.58	
CCCCCCCCCC[C@@H](OC(C)=O)[C@@H]1CC[C@@H]([C@@H]2CC[C@@H]([C@@H](O)CC#C/C=C/CCCCCCC[C@@]3(Sc4ccccc4)C[C@H](C)OC3=O)O2)O1	< 3.70	3.74	
CC(Cl)c1nc2c(c(=O)[nH]1)C1CCCCCCCN1C(=S)N2C (centres undefined)	< 3.70	4.91	
CN(C)/C(N)=N/C(N)=S			inactive
CCOP(=O)(OCC)/C(C#N)=C/c1ncc[nH]1	< 3.70	< 3.70	
CC1=CC2Cc3ccoc3C(C)(C)C2CC1 (centres undefined)			inactive
BrC1=CC=C2NC=CC3=CC=NC1C32 (centres undefined)			inactive
CN(C)C(=O)OC(Cn1cncn1)c1ccc(Cl)cc1Cl (centres undefined)	< 3.27	3.56	
O=C(Nc1ccccc1)O/N=C1/CCCC/C1=C\c1ccccc1	< 4.37	4.40	
CC(=O)O[C@@H](c1nccn1Cc1ccccc1)[C@H]1OC(C)(C)O[C@@H]1[C@H]1COC(C)(C)O1	< 3.70	< 3.70	
Cc1cc(C)nc(NS(=O)(=O)c2ccc(Nc3c4ccccc4nc4c(C(=O)NCCO)cccc34)cc2)n1	< 3.70	5.11	
NC(CSSCC(N)C(=O)NCC(=O)O)C(=O)NCC(=O)O (centres undefined)	< 3.15		
COc1cc2nc3n(c2cc1OC)C(O)c1c(Cl)nc(SC)nc1S3 (centres undefined)	< 3.70	5.11	
